Laboratory results reported in patent US20200223889A1, “Bicyclic Compounds Capable of Binding to Melanocortin 4 Receptor” (Novo Nordisk A/S, priority 2017, published 2020).
Positions of bridges follow the written chain, without caps; N, C: chain ends. Non-standard residues stand in square brackets, D forms with d. Residues, ends and D or L forms follow the SMILES beside them. Thz = O=C(O)[C@@H]1CSCN1

Assay: In vivo obese model: DIO mice treated once daily, food intake and body weight
Protocol: Stimulation of MC4R signaling is reported to modulate energy intake and expenditure in both humans and rodents. In order to test the effect of MC4R agonists on food intake and body weight, diet-induced obese (DIO) mice were treated once daily with compounds to assess weight loss efficacy.
All animal protocols were approved by an Institutional Animal Care and Use Committee and Ethical Review Committee of Novo Nordisk. Animals were housed according to Novo Nordisk rodent housing standards, and were given ad libitum access to food and water under controlled lighting (12 h:12 h light/dark cycle; lights off 17:00-05:00), temperature (23±2° C.) and relative humidity (50±20%) conditions. Diet-induced obese (DIO) male C57BL/6J mice maintained on a high fat diet (60% kcal fat, 5.24 kcal/gram; RD12492, Research Diets, New Brunswick, N.J., USA) for 22 weeks were obtained from Charles River (France). Upon arrival, the mice were single-housed (one mouse per cage) and allowed to acclimate to their new environment for two weeks prior to the start of treatment.
Prior to initiation of the study, animals were single-housed and acclimated to handling for 7 days. The DIO mice were distributed into groups (n=8/group) such that statistical variations in the mean and standard deviations of fat mass and body weight were minimized between groups. Animals were dosed once daily, subcutaneously at 16:00 with either vehicle or compound
Body weight and food intake were measured immediately prior to dosing each day. The average starting body weight of the mice prior to start of treatment was 47.2±0.2 grams.

[1] = 0.3 μmol/kg once daily s.c., day 1, mean ± SEM
[2] = 0.3 μmol/kg once daily s.c., day 2, mean ± SEM
[3] = 0.3 μmol/kg once daily s.c., day 3, mean ± SEM
[4] = 0.3 μmol/kg once daily s.c., day 4, mean ± SEM
[5] = 0.3 μmol/kg once daily s.c., day 5, mean ± SEM
[6] = 0.3 μmol/kg once daily s.c., day 6, mean ± SEM
[7] = 0.3 μmol/kg once daily s.c., day 7, mean ± SEM
[8] = 0.3 μmol/kg once daily s.c., day 8, mean ± SEM
[9] = 0.3 μmol/kg once daily s.c., day 9, mean ± SEM
[10] = 0.3 μmol/kg once daily s.c., day 10, mean ± SEM
[11] = 0.3 μmol/kg once daily s.c., day 11, mean ± SEM
[12] = 0.3 μmol/kg once daily s.c., day 12, mean ± SEM
[13] = 0.3 μmol/kg once daily s.c., day 13, mean ± SEM
[14] = 0.3 μmol/kg once daily s.c., day 14, mean ± SEM
[15] = 0.3 μmol/kg once daily s.c., day 15, mean ± SEM
[16] = 0.3 μmol/kg once daily s.c., day 16, mean ± SEM
[17] = 0.3 μmol/kg once daily s.c., day 17, mean ± SEM
[18] = 0.3 μmol/kg once daily s.c., day 18, mean ± SEM
[19] = 0.3 μmol/kg once daily s.c., day 19, mean ± SEM
[20] = 0.3 μmol/kg once daily s.c., day 20, mean ± SEM
[21] = 1.5 μmol/kg once daily s.c., day 1, mean ± SEM
[22] = 1.5 μmol/kg once daily s.c., day 2, mean ± SEM
[23] = 1.5 μmol/kg once daily s.c., day 3, mean ± SEM
[24] = 1.5 μmol/kg once daily s.c., day 4, mean ± SEM
[25] = 1.5 μmol/kg once daily s.c., day 5, mean ± SEM
[26] = 1.5 μmol/kg once daily s.c., day 6, mean ± SEM
[27] = 1.5 μmol/kg once daily s.c., day 7, mean ± SEM
[28] = 1.5 μmol/kg once daily s.c., day 8, mean ± SEM
[29] = 1.5 μmol/kg once daily s.c., day 9, mean ± SEM
[30] = 1.5 μmol/kg once daily s.c., day 10, mean ± SEM
[31] = 1.5 μmol/kg once daily s.c., day 11, mean ± SEM
[32] = 1.5 μmol/kg once daily s.c., day 12, mean ± SEM
[33] = 1.5 μmol/kg once daily s.c., day 13, mean ± SEM
[34] = 1.5 μmol/kg once daily s.c., day 14, mean ± SEM
[35] = 1.5 μmol/kg once daily s.c., day 15, mean ± SEM
[36] = 1.5 μmol/kg once daily s.c., day 16, mean ± SEM
[37] = 1.5 μmol/kg once daily s.c., day 17, mean ± SEM
[38] = 1.5 μmol/kg once daily s.c., day 18, mean ± SEM
[39] = 1.5 μmol/kg once daily s.c., day 19, mean ± SEM
[40] = 1.5 μmol/kg once daily s.c., day 20, mean ± SEM

C[C@@H]1NC(=O)[C@H](CCCCN)NC(=O)[C@@H]2CSSC[C@H](NC(=O)[C@H](Cc3c[nH]c4ccccc34)NC(=O)[C@H](C)NC(=O)[C@@H](CCCCN)NC1=O)C(=O)N1CSC[C@H]1C(=O)N[C@@H](Cc1c[nH]cn1)C(=O)N[C@H](Cc1ccccc1)C(=O)N[C@@H](Cc1c[nH]cn1)C(=O)N[C@@H](Cc1c[nH]c3ccccc13)C(=O)N2 [Chem. 114, c[c[Cys-THAZ-His-D-Phe-His-Trp- Cys]-Lys-Ala-D-Lys-Ala-Trp]] (cyclo(AWC[Thz]H[dF]HWCKA[dK]); disulfide 3-9)
Daily food intake, kcals (0.3 μmol/kg once daily s.c., day 0, mean ± SEM): 13.4 ± 0.6 kcals
Cumulative food intake, kcals [1]: 7.7 ± 0.5 kcals
Daily food intake, kcals [1]: 7.7 ± 0.5 kcals
Relative body weight, % initial [1]: 96 ± 0.3 % initial
Cumulative food intake, kcals [2]: 13.6 ± 1.5 kcals
Daily food intake, kcals [2]: 6 ± 1.2 kcals
Relative body weight, % initial [2]: 94.2 ± 0.3 % initial
Cumulative food intake, kcals [3]: 23.5 ± 2.1 kcals
Daily food intake, kcals [3]: 9.9 ± 0.9 kcals
Relative body weight, % initial [3]: 93.6 ± 0.5 % initial
Cumulative food intake, kcals [4]: 34.3 ± 2.5 kcals
Daily food intake, kcals [4]: 10.7 ± 0.7 kcals
Relative body weight, % initial [4]: 91.8 ± 0.7 % initial
Cumulative food intake, kcals [5]: 44.8 ± 2.9 kcals
Daily food intake, kcals [5]: 10.5 ± 0.8 kcals
Relative body weight, % initial [5]: 91.1 ± 0.6 % initial
Cumulative food intake, kcals [6]: 55.6 ± 3.7 kcals
Daily food intake, kcals [6]: 10.8 ± 0.9 kcals
Relative body weight, % initial [6]: 89.9 ± 0.9 % initial
Cumulative food intake, kcals [7]: 67.7 ± 4.3 kcals
Daily food intake, kcals [7]: 12.1 ± 0.9 kcals
Relative body weight, % initial [7]: 89.5 ± 0.9 % initial
Cumulative food intake, kcals [8]: 78.8 ± 4.5 kcals
Daily food intake, kcals [8]: 11.1 ± 0.6 kcals
Relative body weight, % initial [8]: 88.6 ± 0.9 % initial
Cumulative food intake, kcals [9]: 90.8 ± 4.7 kcals
Daily food intake, kcals [9]: 12.1 ± 0.6 kcals
Relative body weight, % initial [9]: 88.6 ± 0.9 % initial
Cumulative food intake, kcals [10]: 103.2 ± 5.3 kcals
Daily food intake, kcals [10]: 12.3 ± 0.8 kcals
Relative body weight, % initial [10]: 87.7 ± 1.1 % initial
Cumulative food intake, kcals [11]: 114.2 ± 5.8 kcals
Daily food intake, kcals [11]: 11 ± 0.7 kcals
Relative body weight, % initial [11]: 88.2 ± 1.1 % initial
Cumulative food intake, kcals [12]: 127.6 ± 6.1 kcals
Daily food intake, kcals [12]: 13.4 ± 0.6 kcals
Relative body weight, % initial [12]: 87.2 ± 1.1 % initial
Cumulative food intake, kcals [13]: 140.8 ± 6.4 kcals
Daily food intake, kcals [13]: 13.2 ± 0.7 kcals
Relative body weight, % initial [13]: 87.1 ± 1.2 % initial
Cumulative food intake, kcals [14]: 153.9 ± 6.9 kcals
Daily food intake, kcals [14]: 13.2 ± 0.7 kcals
Relative body weight, % initial [14]: 87.3 ± 1.3 % initial
Cumulative food intake, kcals [15]: 167.5 ± 7.5 kcals
Daily food intake, kcals [15]: 13.6 ± 0.7 kcals
Relative body weight, % initial [15]: 87.4 ± 1.3 % initial
Cumulative food intake, kcals [16]: 181.2 ± 7.8 kcals
Daily food intake, kcals [16]: 13.7 ± 0.5 kcals
Relative body weight, % initial [16]: 87.5 ± 1.3 % initial
Cumulative food intake, kcals [17]: 195.8 ± 7.9 kcals
Daily food intake, kcals [17]: 14.5 ± 0.5 kcals
Relative body weight, % initial [17]: 87.4 ± 1.3 % initial
Cumulative food intake, kcals [18]: 211 ± 8.3 kcals
Daily food intake, kcals [18]: 15.3 ± 0.6 kcals
Relative body weight, % initial [18]: 87.9 ± 1.4 % initial
Cumulative food intake, kcals [19]: 225.4 ± 8.7 kcals
Daily food intake, kcals [19]: 14.3 ± 0.8 kcals
Relative body weight, % initial [19]: 88.6 ± 1.4 % initial
Cumulative food intake, kcals [20]: 241.2 ± 8.5 kcals
Daily food intake, kcals [20]: 15.9 ± 0.5 kcals
Relative body weight, % initial [20]: 88.9 ± 1.3 % initial
reduction in body weight, relative to initial body weight (0.3 μmol/kg once daily subcutaneously): 11.1±1.3%
Daily food intake, kcals (1.5 μmol/kg once daily s.c., day 0, mean ± SEM): 13.9 ± 1.3 kcals
Cumulative food intake, kcals [21]: 5.5 ± 0.8 kcals
Daily food intake, kcals [21]: 5.5 ± 0.8 kcals
Relative body weight, % initial [21]: 95.1 ± 0.4 % initial
Cumulative food intake, kcals [22]: 10.7 ± 1.4 kcals
Daily food intake, kcals [22]: 5.2 ± 0.8 kcals
Relative body weight, % initial [22]: 93 ± 0.4 % initial
Cumulative food intake, kcals [23]: 19.8 ± 2.2 kcals
Daily food intake, kcals [23]: 9.1 ± 0.8 kcals
Relative body weight, % initial [23]: 92.1 ± 0.6 % initial
Cumulative food intake, kcals [24]: 30.5 ± 3.1 kcals
Daily food intake, kcals [24]: 10.7 ± 1.2 kcals
Relative body weight, % initial [24]: 91.3 ± 0.7 % initial
Cumulative food intake, kcals [25]: 41.1 ± 4 kcals
Daily food intake, kcals [25]: 10.7 ± 0.9 kcals
Relative body weight, % initial [25]: 90.6 ± 0.9 % initial
Cumulative food intake, kcals [26]: 51.7 ± 4.6 kcals
Daily food intake, kcals [26]: 10.6 ± 0.8 kcals
Relative body weight, % initial [26]: 89.6 ± 0.8 % initial
Cumulative food intake, kcals [27]: 61.9 ± 5.4 kcals
Daily food intake, kcals [27]: 10.2 ± 1 kcals
Relative body weight, % initial [27]: 88.6 ± 0.9 % initial
Cumulative food intake, kcals [28]: 73.8 ± 5.8 kcals
Daily food intake, kcals [28]: 11.9 ± 0.7 kcals
Relative body weight, % initial [28]: 87.8 ± 0.8 % initial
Cumulative food intake, kcals [29]: 86.2 ± 6.4 kcals
Daily food intake, kcals [29]: 12.4 ± 0.8 kcals
Relative body weight, % initial [29]: 87.8 ± 1 % initial
Cumulative food intake, kcals [30]: 97.5 ± 7.5 kcals
Daily food intake, kcals [30]: 11.3 ± 1.2 kcals
Relative body weight, % initial [30]: 87.1 ± 0.9 % initial
Cumulative food intake, kcals [31]: 110.4 ± 8.4 kcals
Daily food intake, kcals [31]: 12.8 ± 1.4 kcals
Relative body weight, % initial [31]: 86.9 ± 0.9 % initial
Cumulative food intake, kcals [32]: 123.3 ± 9.2 kcals
Daily food intake, kcals [32]: 12.9 ± 0.9 kcals
Relative body weight, % initial [32]: 86.6 ± 1.1 % initial
Cumulative food intake, kcals [33]: 136.4 ± 9.8 kcals
Daily food intake, kcals [33]: 13.2 ± 0.7 kcals
Relative body weight, % initial [33]: 86.7 ± 1.3 % initial
Cumulative food intake, kcals [34]: 149.3 ± 10.7 kcals
Daily food intake, kcals [34]: 12.9 ± 1.1 kcals
Relative body weight, % initial [34]: 86.7 ± 1.3 % initial
Cumulative food intake, kcals [35]: 162.8 ± 11.1 kcals
Daily food intake, kcals [35]: 13.5 ± 0.6 kcals
Relative body weight, % initial [35]: 86 ± 1.2 % initial
Cumulative food intake, kcals [36]: 175.1 ± 11.7 kcals
Daily food intake, kcals [36]: 12.2 ± 0.7 kcals
Relative body weight, % initial [36]: 86 ± 1.3 % initial
Cumulative food intake, kcals [37]: 188.7 ± 12.2 kcals
Daily food intake, kcals [37]: 13.6 ± 0.8 kcals
Relative body weight, % initial [37]: 85.7 ± 1.2 % initial
Cumulative food intake, kcals [38]: 202.5 ± 13.1 kcals
Daily food intake, kcals [38]: 13.8 ± 1 kcals
Relative body weight, % initial [38]: 85.9 ± 1.2 % initial
Cumulative food intake, kcals [39]: 217 ± 13.9 kcals
Daily food intake, kcals [39]: 14.5 ± 0.9 kcals
Relative body weight, % initial [39]: 86.4 ± 1.3 % initial
Cumulative food intake, kcals [40]: 231.8 ± 13.6 kcals
Daily food intake, kcals [40]: 14.8 ± 0.8 kcals
Relative body weight, % initial [40]: 86.8 ± 1.3 % initial
reduction in body weight, relative to initial body weight (1.5 μmol/kg once daily subcutaneously): 13.2±1.3%
food intake (in words) (once daily subcutaneous treatment): transient reduction in food intake that returned to baseline levels during the second week of treatment
